These compounds were tested on HCT116 cells (assay: In vitro cytotoxicity measured by the cell colony formation assay). Details: HCT116 cells, 72 h incubation with drug, colonies counted after 7 days; ID50 = drug concentration producing 50% inhibition of colony formation; read-out: IN VITRO ID 50 (nm) HCT116.
Format: cell-based
Description: (§1) Four hundred cells (HCT116) were plated in 60 mm Petri dishes containing 2.7 mL of medium (modified McCoy's 5a medium containing 10% fetal bovine serum and 100 units/mL penicillin and 100 µg/mL streptomycin). The cells were incubated in a CO2 incubator at 37° C. for 5 h for attachment to the bottom of Petri dishes. The compounds identified in Example 2 were made up fresh in medium at ten times the final concentration, and then 0.3 mL of this stock solution was added to the 2.7 mL of medium in the dish. The cells were then incubated with drugs for 72 h at 37° C. At the end of incubation the drug-containing media were decanted, the dishes were rinsed with 4 mL of Hank's Balance Salt Solution (HBSS), 5 mL of fresh medium was added, and the dishes were returned to the incubator for colony formation. The cell colonies were counted using a colony counter after incubation for 7 days.
as §1, with “Example 7” for “Example 2”
as §1, with “Example 22” for “Example 2”
as §1, with “Example 27” for “Example 2”
Four hundred cells (HCT116) were plated in 60 mm Petri dishes containing 2.7 mL of medium (modified McCoy's 5a medium containing 10% fetal bovine serum and 100 units/mL penicillin and 100 µg/mL streptomycin). The cells were incubated in a CO2 incubator at 37° C. for 5 h for attachment to the bottom of Petri dishes. […]

| SMILES | IC50 |
| --- | --- |
| CCOC(=O)OC1C(=O)C2(C)C(O)CC3OCC3(OC(C)=O)C2C(OC(=O)c2ccccc2)C2(O)CC(OC(=O)C(O)C(NC(=O)OC(C)(C)C)c3cccs3)C(C)=C1C2(C)C (centres unmarked) [Compound 1755] | < 1 nM |
| CCOC(=O)O[C@H]1C(=O)[C@@]2(C)C([C@H](OC(=O)c3ccccc3)[C@]3(O)C[C@H](OC(=O)[C@H](O)[C@@H](NC(=O)OC(C)(C)C)C(C)C)C(C)=C1C3(C)C)[C@]1(OC(C)=O)CO[C@@H]1C[C@@H]2O (some centres unmarked) [Compound 1767] | < 10 nM |
| CCOC(=O)O[C@H]1C(=O)[C@@]2(C)C([C@H](OC(=O)c3ccccc3)[C@]3(O)C[C@H](OC(=O)[C@H](O)[C@@H](NC(=O)OC(C)(C)C)c4ccccc4)C(C)=C1C3(C)C)[C@]1(OC(C)=O)CO[C@@H]1C[C@@H]2O (some centres unmarked) [Compound 1771] | < 10 nM |
| CCOC(=O)O[C@H]1C(=O)[C@@]2(C)C([C@H](OC(=O)c3ccccc3)[C@]3(O)C[C@H](OC(=O)[C@H](O)[C@H](C=C(C)C)NC(=O)OC(C)(C)C)C(C)=C1C3(C)C)[C@]1(OC(C)=O)CO[C@@H]1C[C@@H]2O (some centres unmarked) [Compound 1781] | < 1 nM |
| CCOC(=O)O[C@H]1C(=O)[C@@]2(C)C([C@H](OC(=O)c3ccccc3)[C@]3(O)C[C@H](OC(=O)[C@H](O)[C@H](C=C(C)C)NC(=O)OC(C)(C)C)C(C)=C1C3(C)C)[C@]1(OC(C)=O)CO[C@@H]1C[C@@H]2O (some centres unmarked) [Compound 1788] | < 1 nM |
| CCOC(=O)O[C@H]1C(=O)[C@@]2(C)C([C@H](OC(=O)c3ccccc3)[C@]3(O)C[C@H](OC(=O)[C@H](O)[C@@H](NC(=O)OC(C)(C)C)c4ccccn4)C(C)=C1C3(C)C)[C@]1(OC(C)=O)CO[C@@H]1C[C@@H]2O (some centres unmarked) [Compound 1799] | < 1 nM |
| CCOC(=O)O[C@H]1C(=O)[C@@]2(C)C([C@H](OC(=O)c3ccccc3)[C@]3(O)C[C@H](OC(=O)[C@H](O)[C@@H](NC(=O)OC(C)(C)C)c4cccnc4)C(C)=C1C3(C)C)[C@]1(OC(C)=O)CO[C@@H]1C[C@@H]2O (some centres unmarked) [Compound 1808] | < 10 nM |
| CCOC(=O)O[C@H]1C(=O)[C@@]2(C)C([C@H](OC(=O)c3ccccc3)[C@]3(O)C[C@H](OC(=O)[C@H](O)[C@@H](NC(=O)OC(C)(C)C)c4ccncc4)C(C)=C1C3(C)C)[C@]1(OC(C)=O)CO[C@@H]1C[C@@H]2O (some centres unmarked) [Compound 1811] | < 1 nM |

Same assay, conditions: HCT116 colony formation; 72 h drug incubation, colonies counted after 7 days; Example 5, C-7 ester/C-10 hydroxy taxanes; read-out: IN VITRO ID 50 (nm) HCT116

| SMILES | IC50 |
| --- | --- |
| CCC(=O)O[C@H]1C[C@H]2OC[C@@]2(OC(C)=O)C2[C@H](OC(=O)c3ccccc3)[C@]3(O)C[C@H](OC(=O)[C@H](O)[C@H](C=C(C)C)NC(=O)OC(C)(C)C)C(C)=C([C@@H](O)C(=O)[C@@]21C)C3(C)C (some centres unmarked) [Compound 1351] | < 1 nM |
| CCC(=O)O[C@H]1C[C@H]2OC[C@@]2(OC(C)=O)C2[C@H](OC(=O)c3ccccc3)[C@]3(O)C[C@H](OC(=O)[C@H](O)[C@@H](NC(=O)OC(C)(C)C)c4ccccn4)C(C)=C([C@@H](O)C(=O)[C@@]21C)C3(C)C (some centres unmarked) [Compound 1364] | < 10 nM |
| CCC(=O)O[C@H]1C[C@H]2OC[C@@]2(OC(C)=O)C2[C@H](OC(=O)c3ccccc3)[C@]3(O)C[C@H](OC(=O)[C@H](O)[C@@H](NC(=O)OC(C)(C)C)c4cccnc4)C(C)=C([C@@H](O)C(=O)[C@@]21C)C3(C)C (some centres unmarked) [Compound 1372] | 26.1 nM |
| CCC(=O)O[C@H]1C[C@H]2OC[C@@]2(OC(C)=O)C2[C@H](OC(=O)c3ccccc3)[C@]3(O)C[C@H](OC(=O)[C@H](O)[C@@H](NC(=O)OC(C)(C)C)c4ccncc4)C(C)=C([C@@H](O)C(=O)[C@@]21C)C3(C)C (some centres unmarked) [Compound 1386] | < 1 nM |
| CCC(=O)OC1CC2OCC2(OC(C)=O)C2C(OC(=O)c3ccccc3)C3(O)CC(OC(=O)C(O)C(NC(=O)OC(C)(C)C)c4ccco4)C(C)=C(C(O)C(=O)C12C)C3(C)C (centres unmarked) [Compound 1393, 3′-Desphenyl-3′-(2-furyl)-7-propionyl taxotere] | < 1 nM |
| CCC(=O)O[C@H]1C[C@H]2OC[C@@]2(OC(C)=O)C2[C@H](OC(=O)c3ccccc3)[C@]3(O)C[C@H](OC(=O)[C@H](O)[C@@H](NC(=O)OC(C)(C)C)c4ccoc4)C(C)=C([C@@H](O)C(=O)[C@@]21C)C3(C)C (some centres unmarked) [Compound 1401] | < 1 nM |
| CCC(=O)O[C@H]1C[C@H]2OC[C@@]2(OC(C)=O)C2[C@H](OC(=O)c3ccccc3)[C@]3(O)C[C@H](OC(=O)[C@H](O)[C@@H](NC(=O)OC(C)(C)C)c4ccsc4)C(C)=C([C@@H](O)C(=O)[C@@]21C)C3(C)C (some centres unmarked) [Compound 1424] | < 1 nM |
| CCC(=O)O[C@H]1C[C@H]2OC[C@@]2(OC(C)=O)C2[C@H](OC(=O)c3ccccc3)[C@]3(O)C[C@H](OC(=O)[C@H](O)[C@@H](NC(=O)OC(C)(C)C)C(C)C)C(C)=C([C@@H](O)C(=O)[C@@]21C)C3(C)C (some centres unmarked) [Compound 1434] | < 10 nM |
| CCC(=O)O[C@H]1C[C@H]2OC[C@@]2(OC(C)=O)C2[C@H](OC(=O)c3ccccc3)[C@]3(O)C[C@H](OC(=O)[C@H](O)[C@@H](NC(=O)OC(C)(C)C)C4CCC4)C(C)=C([C@@H](O)C(=O)[C@@]21C)C3(C)C (some centres unmarked) [Compound 1447] | < 10 nM |
| CCC(=O)O[C@H]1C[C@H]2OC[C@@]2(OC(C)=O)C2[C@H](OC(=O)c3ccccc3)[C@]3(O)C[C@H](OC(=O)[C@H](O)[C@@H](NC(=O)OC(C)(C)C)c4ccccc4)C(C)=C([C@@H](O)C(=O)[C@@]21C)C3(C)C (some centres unmarked) [Compound 1458] | < 10 nM |

Same assay, conditions: HCT116 colony formation; 72 h drug incubation, colonies counted after 7 days; Example 10, C-10 ester/C-7 hydroxy taxanes; read-out: IN VITRO ID 50 (nm) HCT116

| SMILES | IC50 |
| --- | --- |
| CCCC(=O)O[C@H]1C(=O)[C@@]2(C)C([C@H](OC(=O)c3ccccc3)[C@]3(O)C[C@H](OC(=O)[C@H](O)[C@@H](NC(=O)OC(C)(C)C)c4ccco4)C(C)=C1C3(C)C)[C@]1(OC(C)=O)CO[C@@H]1C[C@@H]2O (some centres unmarked) [Compound 0983] | < 1 nM |
| CCCC(=O)O[C@H]1C(=O)[C@@]2(C)C([C@H](OC(=O)c3ccccc3)[C@]3(O)C[C@H](OC(=O)[C@H](O)[C@@H](NC(=O)OC(C)(C)C)c4ccoc4)C(C)=C1C3(C)C)[C@]1(OC(C)=O)CO[C@@H]1C[C@@H]2O (some centres unmarked) [Compound 0999] | < 1 nM |
| CCCC(=O)O[C@H]1C(=O)[C@@]2(C)C([C@H](OC(=O)c3ccccc3)[C@]3(O)C[C@H](OC(=O)[C@H](O)[C@@H](NC(=O)OC(C)(C)C)c4cccs4)C(C)=C1C3(C)C)[C@]1(OC(C)=O)CO[C@@H]1C[C@@H]2O (some centres unmarked) [Compound 1003] | < 1 nM |
| CCCC(=O)O[C@H]1C(=O)[C@@]2(C)C([C@H](OC(=O)c3ccccc3)[C@]3(O)C[C@H](OC(=O)[C@H](O)[C@@H](NC(=O)OC(C)(C)C)c4ccsc4)C(C)=C1C3(C)C)[C@]1(OC(C)=O)CO[C@@H]1C[C@@H]2O (some centres unmarked) [Compound 1011] | < 1 nM |
| CCCC(=O)OC1C(=O)C2(C)C(O)CC3OCC3(OC(C)=O)C2C(OC(=O)c2ccccc2)C2(O)CC(OC(=O)C(O)C(NC(=O)OC(C)(C)C)C3CC3)C(C)=C1C2(C)C (centres unmarked) [Compound 1020] | < 1 nM |
| CCCC(=O)OC1C(=O)C2(C)C(O)CC3OCC3(OC(C)=O)C2C(OC(=O)c2ccccc2)C2(O)CC(OC(=O)C(O)C(NC(=O)OC(C)(C)C)C(C)C)C(C)=C1C2(C)C (centres unmarked) [Compound 1031] | < 10 nM |
| CCCC(=O)OC1C(=O)C2(C)C(O)CC3OCC3(OC(C)=O)C2C(OC(=O)c2ccccc2)C2(O)CC(OC(=O)C(O)C(NC(=O)OC(C)(C)C)C3CCC3)C(C)=C1C2(C)C (centres unmarked) [Compound 1044] | < 1 nM |
| CCCC(=O)OC1C(=O)C2(C)C(O)CC3OCC3(OC(C)=O)C2C(OC(=O)c2ccccc2)C2(O)CC(OC(=O)C(O)C(NC(=O)OC(C)(C)C)c3ccccc3)C(C)=C1C2(C)C (centres unmarked) [Compound 1060] | < 1 nM |

Source: patent US6638973B2, “Taxane formulations” (FSU Research Foundation, Inc., priority 2000, dated 2003)
